The target in one assay is T1, human eIF4E protein (Homo sapiens, UniProt P06730).
T1 construct: purchased Novus NBP-45314
As to the kind of experiment: Biochemical competitive binding assay (TR-FRET competition, EDA-m7GDP-ATTO-647N probe). The conditions noted are these: read-out: hEIF4E TR-FRET IC50. The essentials:
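IC50 values come from 4-parameter fits of the normalized 665/620 nm TR-FRET ratio. Compound was first incubated 15 min with 4 nM recombinant His-eIF4E bound to 2.5 nM Eu-anti-His antibody, then 15 min with 5 nM m7GDP-ATTO-647N tracer, in pH 7.5 HEPES buffer with 100 mM KCl, Tween-20 and BSA.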
Background: In TR-FRET formats the signal depends on donor and acceptor labels being close together.

For assay [1], the system named is cyclin D1 protein levels in COLO 205 cells. In words: Cyclin D1 cellular inhibition assay (HTRF, 6 hours). In kind it is cell-based. Conditions: Homo sapiens, COLO 205, 6 h, 6 hours of compound treatment, Cyclin D1 protein levels by HTRF, read-out: COLO 205 6 h Cyclin D1 TR-FRET IC50. Here is the method: The effect of compound treatment on cyclin D1 protein levels in COLO 205 cells was assessed, as follows. Test compound plates were prepared with a Tecan D300e Digital Dispenser as 11-point concentration-response curves with a final DMSO concentration of 1%. COLO 205 (ATCC, CCL-222) colorectal tumor cells were seeded to assay-ready plates in RPMI-1640 medium supplemented with 10% FBS at 20,000 cells in a volume of 6 microliters per well. After 6 hours of compound treatment, cells were lysed and Cyclin D1 protein levels were assessed by an HTRF assay (PerkinElmer #64CYCD1ITPEG), according to the manufacturer's protocol. Time-resolved fluorescence was measured using a Clariostar Plus microplate reader (BMG Labtech) or equivalent. After normalization to the average of DMSO control and maximum inhibition control wells, concentration-response data were plotted and standard 4-parameter curve fitting (GraphPad Prism v9.4.1) was utilized to determine IC50 values.

Assay [2] relates to COLO 205 colorectal tumor cells. As to the kind of experiment: Tumor cell viability inhibition assay (CellTiter-Glo 2.0, 72 hours). The conditions noted are these: Homo sapiens, COLO 205, 72 h, COLO 205 cell viability. In kind it is cell-based. The essentials:
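IC50 derived by 4-parameter fitting after normalizing luminescence to DMSO and max-inhibition wells. Compounds tested as 11 concentrations in 4-fold steps on COLO 205 cells seeded at 1500 per well in RPMI-1640/10% FBS; ATP content measured with CellTiter-Glo 2.0 after 72 h.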
(In ATP-based viability assays light output follows the ATP content of the culture.)

A value given as a limit tells only on which side of the number the result lay.

T1 sequence (P06730 whole entry): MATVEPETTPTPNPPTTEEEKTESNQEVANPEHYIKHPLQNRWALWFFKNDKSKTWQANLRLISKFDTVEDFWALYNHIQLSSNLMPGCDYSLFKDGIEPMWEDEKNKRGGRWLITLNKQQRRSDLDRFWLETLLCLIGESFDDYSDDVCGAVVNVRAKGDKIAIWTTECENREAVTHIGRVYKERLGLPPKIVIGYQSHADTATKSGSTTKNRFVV

On to `Cc1cc(-c2cc(Cl)ccc2OCCn2c(C)nc3c(c2=O)CC(NCC2CC(F)(F)C2)CC3)c2scc(C(=O)O)c2n1` (stereo not drawn) [Compound 153], for which the 50% inhibitory concentration (IC50) on human eIF4E protein was less than 0.1 µM; in assay [1], 5 to 20 µM; in assay [2], 5 to 20 µM.
As to `COc1cc(CNC2CCc3nc(C)n(CCOc4ccc(Cl)cc4-c4cc(C)nc5c(C(=O)O)csc45)c(=O)c3C2)ccn1` (stereo not drawn) [Compound 154], the IC50 at human eIF4E protein is less than 0.1 µM; in assay [1], less than 5 µM; in assay [2] it was less than 5 µM.
For the compound `Cc1cc(-c2cc(Cl)ccc2OCCn2c(C)nc3c(c2=O)CC(N2CCC(C4CC(F)(F)C4)CC2)CC3)c2scc(C(=O)O)c2n1` (stereo not drawn) [Compound 156], the values for the IC50 (at human eIF4E protein; in assay [1]; in assay [2]) were less than 0.1 µM, less than 5 µM and less than 5 µM, respectively.
For `Cc1cc(-c2cc(Cl)ccc2OCCn2c(C)nc3c(c2=O)CC(N2CCc4ncncc4C2)CC3)c2scc(C(=O)O)c2n1` (stereo not drawn) [Compound 157], the IC50 at human eIF4E protein was less than 0.1 µM; in assay [1] it was 5 to 20 µM; in assay [2], 5 to 20 µM.
As for `Cc1cc(-c2cc(Cl)ccc2OCCn2c(C)nc3c(c2=O)CC(N(C)Cc2ccnc(N)n2)CC3)c2scc(C(=O)O)c2n1` (stereo not drawn) [Compound 158, 7-(2-(2-(6-(((2-aminopyrimidin-4-yl)methyl)(methyl)amino)-2-methyl-4-oxo-5,6,7,8-tetrahydroquinazolin-3(4H)-yl)ethoxy)-5-chlorophenyl)-5-methylthieno[3,2-b]pyridine-3-carboxylic acid], the results for the concentration for half-maximal inhibition (IC50) (on human eIF4E protein; in assay [1]; in assay [2]) were less than 0.1 µM, more than 20 µM and more than 20 µM, respectively.
With `Cc1cc(-c2cc(Cl)ccc2OCCn2c(C)nc3c(c2=O)CC(N2CCc4[nH]ncc4C2)CC3)c2scc(C(=O)O)c2n1` (stereo not drawn) [Compound 159], the figures for the IC50 (at human eIF4E protein; in assay [1]; in assay [2]) were less than 0.1 µM, more than 20 µM and more than 20 µM, respectively.
On to `Cc1cc(-c2cc(Cl)ccc2OCCn2c(C)nc3c(c2=O)CC(N2CCc4cc(C(F)(F)F)ccc4C2)CC3)c2scc(C(=O)O)c2n1` (stereo not drawn) [Compound 160], for which the values for the IC50 (on human eIF4E protein; in assay [1]; in assay [2]) were less than 0.1 µM, less than 5 µM and less than 5 µM, respectively.
In the case of `Cc1cc(-c2cc(Cl)ccc2OCCn2c(C)nc3c(c2=O)CC(N2CC4(CCC(F)(F)CC4)C2)CC3)c2scc(C(=O)O)c2n1` (stereo not drawn) [Compound 161], the 50% inhibitory concentration (IC50) was less than 0.1 µM on human eIF4E protein, less than 5 µM in assay [1] and less than 5 µM in assay [2].
Turning to `Cc1cc(-c2cc(Cl)ccc2OCCn2c(C)nc3c(c2=O)CC(N2CC4(CC=C(F)CC4)C2)CC3)c2scc(C(=O)O)c2n1` (stereo not drawn) [Compound 162], the IC50 on human eIF4E protein was less than 0.1 µM; in assay [1], less than 5 µM; in assay [2], less than 5 µM.
For the compound `Cc1cc(-c2cc(Cl)ccc2OCCn2c(C)nc3c(c2=O)CC(N2CCC(C(F)(F)F)CC2)CC3)c2scc(C(=O)O)c2n1` (stereo not drawn) [Compound 163], the IC50 at human eIF4E protein is less than 0.1 µM; in assay [1], less than 5 µM; in assay [2], less than 5 µM.
Take `Cc1cc(-c2cc(Cl)ccc2OCCn2c(C)nc3c(c2=O)CC(N2CCc4ncsc4C2)CC3)c2scc(C(=O)O)c2n1` (stereo not drawn) [Compound 164]: the IC50 is less than 0.1 µM at human eIF4E protein, less than 5 µM in assay [1] and less than 5 µM in assay [2].
With `Cc1cc(-c2cc(Cl)ccc2OCCn2c(C)nc3c(c2=O)CC(N2CCc4cccnc4C2)CC3)c2scc(C(=O)O)c2n1` (stereo not drawn) [Compound 165], the concentration for half-maximal inhibition (IC50) on human eIF4E protein was less than 0.1 µM; in assay [1] it was less than 5 µM; in assay [2] it was less than 5 µM.
For `Cc1cc(-c2cc(Cl)ccc2OCCn2c(C)nc3c(c2=O)CC(N2CCC4(CCC(F)(F)CC4)C2)CC3)c2scc(C(=O)O)c2n1` (stereo not drawn) [Compound 170], the half-inhibitory concentration (IC50) is less than 0.1 µM at human eIF4E protein, less than 5 µM in assay [1] and less than 5 µM in assay [2].
Take `Cc1cc(-c2cc(Cl)ccc2OCCn2c(C)nc3c(c2=O)CC(N2CCc4ccncc4C2)CC3)c2scc(C(=O)O)c2n1` (stereo not drawn) [Compound 171]: the half-maximal inhibitory concentration (IC50) is less than 0.1 µM on human eIF4E protein, less than 5 µM in assay [1] and less than 5 µM in assay [2].
As to `Cc1cc(-c2cc(Cl)ccc2OCCn2c(C)nc3c(c2=O)CC(N2CC4C(C2)C4(F)F)CC3)c2scc(C(=O)O)c2n1` (stereo not drawn) [Compound 172], the IC50 on human eIF4E protein was less than 0.1 µM; in assay [1], less than 5 µM; in assay [2], less than 5 µM.
With `Cc1cc(-c2cc(Cl)ccc2OCCn2c(C)nc3c(c2=O)CC(N(C)Cc2cccc(N)n2)CC3)c2scc(C(=O)O)c2n1` (stereo not drawn) [Compound 173], the values for the IC50 (at human eIF4E protein; in assay [1]; in assay [2]) were less than 0.1 µM, more than 20 µM and 5 to 20 µM, respectively.
`Cc1cc(-c2cc(Cl)ccc2OCCn2c(C)nc3c(c2=O)CC(N2CCC4(CC2)CC4(F)F)CC3)c2scc(C(=O)O)c2n1` (stereo not drawn) [Compound 174]: the 50% inhibitory concentration (IC50) on human eIF4E protein is less than 0.1 µM; in assay [1] it was less than 5 µM; in assay [2], less than 5 µM.
In the case of `Cc1cc(-c2cc(Cl)ccc2OCCn2c(C)nc3c(c2=O)CC(N2C[C@@H]4CC(F)(F)C[C@@H]4C2)CC3)c2scc(C(=O)O)c2n1` (stereo partly drawn) [Compound 175], the IC50 at human eIF4E protein was less than 0.1 µM; in assay [1] it was less than 5 µM; in assay [2] it was less than 5 µM.
Turning to `Cc1cc(-c2cc(Cl)ccc2OCCn2c(C)nc3c(c2=O)CC(N2CC4CCC(C4)C2)CC3)c2scc(C(=O)O)c2n1` (stereo not drawn) [Compound 176], the IC50 on human eIF4E protein is less than 0.1 µM; in assay [1] it was less than 5 µM; in assay [2] it was less than 5 µM.
Regarding `Cc1cc2c(cn1)CCN(C1CCc3nc(C)n(CCOc4ccc(Cl)cc4-c4cc(C)nc5c(C(=O)O)csc45)c(=O)c3C1)C2` (stereo not drawn) [Compound 177], the 50% inhibitory concentration (IC50) on human eIF4E protein is less than 0.1 µM; in assay [1], less than 5 µM; in assay [2] it was less than 5 µM.
For `Cc1cc(-c2cc(Cl)ccc2OCCn2c(C)nc3c(c2=O)CC(N2CCC(OC(F)(F)F)CC2)CC3)c2scc(C(=O)O)c2n1` (stereo not drawn) [Compound 178], the 50% inhibitory concentration (IC50) at human eIF4E protein is less than 0.1 µM; in assay [1] it was less than 5 µM; in assay [2], less than 5 µM.
For the compound `Cc1cc(-c2cc(Cl)ccc2OCCn2c(C)nc3c(c2=O)CC(N2CCC(OC4CC4)CC2)CC3)c2scc(C(=O)O)c2n1` (stereo not drawn) [Compound 179], the IC50 on human eIF4E protein was less than 0.1 µM; in assay [1], less than 5 µM; in assay [2], less than 5 µM.
As to `Cc1cc(-c2cc(Cl)ccc2OCCn2c(C)nc3c(c2=O)CC(N2CCc4ncccc4C2)CC3)c2scc(C(=O)O)c2n1` (stereo not drawn) [Compound 180], the half-inhibitory concentration (IC50) at human eIF4E protein is less than 0.1 µM; in assay [1], less than 5 µM; in assay [2] it was less than 5 µM.
For `Cc1cc(-c2cc(Cl)ccc2OCCn2c(C)nc3c(c2=O)CC(N2CCc4sccc4C2)CC3)c2scc(C(=O)O)c2n1` (stereo not drawn) [Compound 181], the IC50 is less than 0.1 µM at human eIF4E protein, less than 5 µM in assay [1] and less than 5 µM in assay [2].
As to `Cc1csc(CN(C)C2CCc3nc(C)n(CCOc4ccc(Cl)cc4-c4cc(C)nc5c(C(=O)O)csc45)c(=O)c3C2)n1` (stereo not drawn) [Compound 182], the half-inhibitory concentration (IC50) at human eIF4E protein was less than 0.1 µM; in assay [1] it was less than 5 µM; in assay [2], less than 5 µM.
Regarding `Cc1cc(-c2cc(Cl)ccc2OCCn2c(C)nc3c(c2=O)CC(N(C)Cc2cnc(C)s2)CC3)c2scc(C(=O)O)c2n1` (stereo not drawn) [Compound 185], the half-maximal inhibitory concentration (IC50) was less than 0.1 µM at human eIF4E protein, less than 5 µM in assay [1] and less than 5 µM in assay [2].
As for `Cc1cc(-c2cc(Cl)ccc2OCCn2c(C)nc3c(c2=O)CC(N(C)Cc2cc[nH]n2)CC3)c2scc(C(=O)O)c2n1` (stereo not drawn) [Compound 186], the half-inhibitory concentration (IC50) was less than 0.1 µM on human eIF4E protein, more than 20 µM in assay [1] and more than 20 µM in assay [2].

A word on the IC50: it is the concentration at which inhibition is half-maximal.

The record behind these values is patent US20240246918A1, “COMPOUNDS AND COMPOSITIONS AS EIF4E INHIBITORS AND THE USES THEREOF” (Ribometrix, Inc., priority 2022, published 2024).
